Measurements: patent US8729089B2 (Gilead Sciences, Inc., priority 2006, dated 2014)

Legend:
[1] = test system: HCV replicon in human hepatoma Huh-7 cell line; experiment: Anti-HCV replicon assay (EC50, luciferase); format: cell-based; settings: Hepatitis C virus, Huh-7, 72 h
Method in brief: (§1)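 Cytotoxicity (CC50) measured by CellTiter-Glo and antiviral activity (EC50) by luciferase signal from lysed cells, both by luminescence. Replicon-bearing Huh-7 cells, 6000 per well, incubated 3 days at 37 °C with threefold-diluted compound (0.5% DMSO for DMSO-dissolved compounds).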

[2] = CC50 assay (CellTiter-Glo) in Huh-7 HCV replicon cells; format: cell-based, human; settings: human, 3 days incubation, CellTiter-Glo readout
Method in brief: as §1

Compound | EC50 [1] [µM] | CC50 at 3 days [2] [µM]
CS(=O)(=O)CCNc1nc(NCc2ccc(S(N)(=O)=O)cc2)nc2ccc(-c3ccc(F)c(NS(=O)(=O)C4CC4)c3)nc12 [Example 164, 4-{[4-(2-Methanesulfonylethyl)-amino-6-(4-(3-cyclopropanesulfonamido-4-fluoro)-phenyl)-pyrido[3,2-d]pyrimidin-2-ylamino]-methyl}-benzenesulfonamide] | 0.1 to 0.25 | > 25
CC(C)(C)OC(=O)NC1CCN(S(=O)(=O)c2cc(-c3ccc4nc(NCc5ccc(S(N)(=O)=O)cc5)nc(NCC(F)(F)F)c4n3)ccc2Cl)CC1 [Example 194, (1-{2-Chloro-5-[2-(4-sulfamoyl-benzylamino)-4-(2,2,2-trifluoro-ethylamino)-pyrido[3,2-d]pyrimidin-6-yl]-benzenesulfonyl}-piperidin-4-yl)-carbamic acid tert-butyl ester] | < 0.1 | < 5
COCCNc1nc(NCC(F)(F)F)c2nc(-c3ccc(F)cc3)ccc2n1 [Example 252, 6-(4-Fluoro-phenyl)-N2-(2-methoxy-ethyl)-N4-(2,2,2-trifluoro-ethyl)-pyrido[3,2-d]pyrimidine-2,4-diamine] | < 0.1 | 5 to 25
NS(=O)(=O)c1ccc(CNc2nc(NCC(F)(F)F)c3nc(-c4ccc(NC(=O)[C@H]5CCNC5)cc4)ccc3n2)cc1 [Example 222, Pyrrolidine-3-carboxylic acid {4-[2-(4-sulfamoyl-benzylamino)-4-(2,2,2-trifluoro-ethylamino)-pyrido[3,2-d]pyrimidin-6-yl]-phenyl}-amide] | < 0.1 | 5 to 25
CC(C)N1CCN(S(=O)(=O)c2cc(-c3ccc4nc(NCc5ccc(S(N)(=O)=O)cc5)nc(NCC(F)(F)F)c4n3)ccc2F)CC1 [Example 204, 4-{[6-[4-Fluoro-3-(4-isopropyl-piperazine-1-sulfonyl)-phenyl]-4-(2,2,2-trifluoro-ethylamino)-pyrido[3,2-d]pyrimidin-2-ylamino]-methyl}-benzenesulfonamide] | < 0.1 | < 5
CCOc1nc(NCc2ccc(CS(=O)(=O)NC(C)C)cc2)nc2ccc(-c3ccc(F)cc3)nc12 [Example 117, C-(4-{[4-Ethoxy-6-(4-fluoro-phenyl)-pyrido[3,2-d]pyrimidin-2-ylamino]-methyl}-phenyl)-N-isopropyl-methanesulfonamide] | < 0.1 | 5 to 25
N#CC1(NC(=O)c2ccc(-c3ccc4nc(NCc5ccc(S(N)(=O)=O)cc5)nc(NCC(F)(F)F)c4n3)cc2)CC1 [Example 159, 4-{[4-(2,2,2-Trifluoroethyl)-amino-6-(4-(N-(1-cyano-1-cyclopropyl)-carbamoyl)phenyl)-pyrido[3,2-d]pyrimidin-2-ylamino]-methyl}-benzenesulfonamide] | < 0.1 | > 25
NC(=O)c1ccc(-c2ccc3nc(NCc4ccc(S(N)(=O)=O)cc4)nc(NCC(F)(F)F)c3n2)cc1 [Example 160] | < 0.1 | 5 to 25
NS(=O)(=O)c1ccc(CNc2nc(NCC(F)(F)F)c3nc(-c4ccc(F)cc4)ccc3n2)cc1 [Example 149, 4-{[4-(2,2,2-Trifluoroethyl)-amino-6-(4-fluorophenyl)-pyrido[3,2-d]pyrimidin-2-ylamino]-methyl}-benzenesulfonamide] | < 0.1 | 5 to 25
CCOc1nc(NCc2ccc(S(N)(=O)=O)cc2)nc2ccc(-c3ccc(NC(=O)OCCN4CCCC4)cc3)nc12 [Example 125] | < 0.1 | < 5
CCOc1nc(NCc2ccc(F)cc2)nc2ccc(-c3ccc(NC(=O)[C@H]4CCNC4)c(F)c3)nc12 [Example 90, Pyrrolidine-3-carboxylic acid {4-[4-ethoxy-2-(4-fluoro-benzylamino)-pyrido[3,2-d]pyrimidin-6-yl]-2-fluoro-phenyl}-amide] | < 0.1 | < 5
CCOc1nc(NCc2c(F)cc(Cl)cc2F)nc2ccc(-c3ccc(F)cc3)nc12 [Example 37, (4-Chloro-2,6-difluoro-benzyl)-[4-ethoxy-6-(4-fluoro-phenyl)-pyrido[3,2-d]pyrimidin-2-yl]-amine] | < 0.1 | 5 to 25
CS(=O)(=O)N(CCO)c1cccc(-c2ccc3nc(NCc4ccc(S(N)(=O)=O)cc4)nc(NCC(F)(F)F)c3n2)c1 [Example 161, 4-{[4-(2,2,2-Trifluoroethyl)-amino-6-(4-(3-(N-2-hydroxyethyl)methane-sulfonamido)-phenyl)-pyrido[3,2-d]pyrimidin-2-ylamino]-methyl}-benzenesulfonamide] | < 0.1 | > 25
N#Cc1cc(-c2ccc3nc(NCc4ccc(S(N)(=O)=O)cc4)nc(NCC(F)(F)F)c3n2)ccn1 [Example 173, 4-{[6-(2-Cyano-pyridin-4-yl)-4-(2,2,2-trifluoro-ethylamino)-pyrido[3,2-d]pyrimidin-2-ylamino]-methyl}-benzenesulfonamide] | < 0.1 | > 25
CN1CC[C@H](C(=O)Nc2ccc(-c3ccc4nc(NCc5ccc(S(N)(=O)=O)cc5)nc(NCC(F)(F)F)c4n3)cc2)C1 [Example 178, 1-Methyl-pyrrolidine-3-carboxylic acid {4-[2-(4-sulfamoyl-benzylamino)-4-(2,2,2-trifluoro-ethylamino)-pyrido[3,2-d]pyrimidin-6-yl]-phenyl}-amide] | < 0.1 | 5 to 25
NS(=O)(=O)c1ccc(CNc2nc(NC3CC3)c3nc(-c4ccc(F)cc4)ccc3n2)cc1 [Example 296, 4-{[4-Cyclopropylamino-6-(4-fluoro-phenyl)-pyrido[3,2-d]pyrimidin-2-ylamino]-methyl}-benzenesulfonamide] | < 0.1 | > 25
Fc1ccc(CNc2nc(NCCN3CCOCC3)c3nc(-c4ccc(F)cc4)ccc3n2)cc1 [Example 32, N2-(4-Fluoro-benzyl)-6-(4-fluoro-phenyl)-N4-(2-morpholin-4-yl-ethyl)-pyrido[3,2-d]pyrimidine-2,4-diamine] | < 0.1 | 5 to 25
CCOc1nc(NCc2ccc(NS(C)(=O)=O)cc2)nc2ccc(-c3ccc(F)cc3)nc12 [Example 271, N-(4-{[4-Ethoxy-6-(4-fluoro-phenyl)-pyrido[3,2-d]pyrimidin-2-ylamino]-methyl}-phenyl)-methanesulfonamide] | < 0.1 | 5 to 25
COCCOc1nc(NCc2ccc(S(N)(=O)=O)cc2)nc2ccc(-c3ccc(F)cc3)nc12 [Example 237, 4-{[6-(4-Fluoro-phenyl)-4-(2-methoxy-ethoxy)-pyrido[3,2-d]pyrimidin-2-ylamino]-methyl}-benzenesulfonamide] | < 0.1 | < 5
NC(=O)CCNc1nc(NCc2ccc(F)cc2)nc2ccc(-c3ccc(F)cc3)nc12 [Example 24, 3-[2-(4-Fluoro-benzylamino)-6-(4-fluoro-phenyl)-pyrido[3,2-d]pyrimidin-4-ylamino]-propionamide] | < 0.1 | 5 to 25
CS(=O)(=O)CCNc1nc(NCc2ccc(F)cc2)nc2ccc(-c3ccc(F)cc3)nc12 [Example 299, N2-(4-Fluoro-benzyl)-6-(4-fluoro-phenyl)-N4-(2-methanesulfonyl-ethyl)-pyrido[3,2-d]pyrimidine-2,4-diamine] | < 0.1 | 5 to 25
CC1(Oc2nc(NCc3ccc(S(N)(=O)=O)cc3)nc3ccc(-c4ccc(F)cc4)nc23)CC1 [Example 301, 4-{[6-(4-Fluoro-phenyl)-4-(1-methyl-cyclopropoxy)-pyrido[3,2-d]pyrimidin-2-ylamino]-methyl}-benzenesulfonamide] | < 0.1 | < 5
C[C@@H](O)C(=O)Nc1ccc(-c2ccc3nc(NCc4ccc(S(N)(=O)=O)cc4)nc(NCC(F)(F)F)c3n2)cc1 [Example 220, 2-Hydroxy-N-{4-[2-(4-sulfamoyl-benzylamino)-4-(2,2,2-trifluoro-ethylamino)-pyrido[3,2-d]pyrimidin-6-yl]-phenyl}-propionamide] | < 0.1 | 5 to 25
NS(=O)(=O)c1ccc(CNc2nc(C3CC3)c3nc(-c4ccc(C(=O)NC5CC5)cc4)ccc3n2)cc1 [Example 293, N-Cyclopropyl-4-[4-cyclopropyl-2-(4-sulfamoyl-benzylamino)-pyrido[3,2-d]pyrimidin-6-yl]-benzamide] | < 0.1 | < 5
Fc1ccc(-c2ccc3nc(NCCN4CCOCC4)nc(NCC(F)(F)F)c3n2)cc1 [Example 258, 6-(4-Fluoro-phenyl)-N2-(2-morpholin-4-yl-ethyl)-N4-(2,2,2-trifluoro-ethyl)-pyrido[3,2-d]pyrimidine-2,4-diamine] | < 0.1 | < 5
CC(Nc1nc(NCC(F)(F)F)c2nc(-c3ccc(F)cc3)ccc2n1)c1ccc(-n2cncn2)cc1 (stereo not shown) [Example 255, 6-(4-Fluoro-phenyl)-N2-[1-(4-[1,2,4]triazol-1-yl-phenyl)-ethyl]-N4-(2,2,2-trifluoro-ethyl)-pyrido[3,2-d]pyrimidine-2,4-diamine] | < 0.1 | 5 to 25
NC(=O)c1ccc(-c2ccc3nc(NCc4ccc(S(N)(=O)=O)cc4)nc(NC4CC4)c3n2)cc1 [Example 186, 4-[4-Cyclopropylamino-2-(4-sulfamoyl-benzylamino)-pyrido[3,2-d]pyrimidin-6-yl]-benzamide] | < 0.1 | > 25
CC(Nc1nc(NCC(F)(F)F)c2nc(-c3ccc(F)cc3)ccc2n1)c1ccc(S(N)(=O)=O)cc1 (stereo not shown) [Example 249, 4-{1-[6-(4-Fluoro-phenyl)-4-(2,2,2-trifluoro-ethylamino)-pyrido[3,2-d]pyrimidin-2-ylamino]-ethyl}-benzenesulfonamide] | < 0.1 | < 5
CCOc1nc(NCc2ccc(F)cc2)nc2ccc(-c3ccc(NC(=O)N4CCCC4)cc3)nc12 [Example 73, Pyrrolidine-1-carboxylic acid {4-[4-ethoxy-2-(4-fluoro-benzylamino)-pyrido[3,2-d]pyrimidin-6-yl]-phenyl}-amide] | < 0.1 | 5 to 25
